# Biological target: T1, human RXFP1 (Homo sapiens, UniProt Q9HBX9)
# T1 construct: expressed in transfected cells
# T1 sequence (Q9HBX9 1-757): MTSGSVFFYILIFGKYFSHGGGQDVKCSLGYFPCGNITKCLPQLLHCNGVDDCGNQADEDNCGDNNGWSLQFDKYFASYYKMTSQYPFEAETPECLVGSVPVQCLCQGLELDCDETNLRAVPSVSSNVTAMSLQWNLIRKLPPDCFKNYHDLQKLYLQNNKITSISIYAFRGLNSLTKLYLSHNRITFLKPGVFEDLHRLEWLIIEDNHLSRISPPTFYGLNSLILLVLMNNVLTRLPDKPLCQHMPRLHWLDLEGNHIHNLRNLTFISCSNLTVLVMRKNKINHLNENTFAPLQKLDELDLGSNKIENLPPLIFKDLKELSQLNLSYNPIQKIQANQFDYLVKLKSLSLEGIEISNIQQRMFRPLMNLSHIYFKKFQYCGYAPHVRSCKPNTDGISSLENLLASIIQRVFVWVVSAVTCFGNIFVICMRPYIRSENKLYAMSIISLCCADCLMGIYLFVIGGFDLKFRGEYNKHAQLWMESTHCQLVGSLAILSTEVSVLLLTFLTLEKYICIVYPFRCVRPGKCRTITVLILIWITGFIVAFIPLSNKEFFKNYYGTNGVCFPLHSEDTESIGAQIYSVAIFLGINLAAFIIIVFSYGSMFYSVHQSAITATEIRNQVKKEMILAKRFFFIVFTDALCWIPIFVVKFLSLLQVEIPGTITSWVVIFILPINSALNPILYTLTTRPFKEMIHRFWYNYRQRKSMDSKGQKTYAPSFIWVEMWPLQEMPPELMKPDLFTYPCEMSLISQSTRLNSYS
# Assay: hRXFP1 HEK293 cAMP assay (HTRF)
# Type: cell-based
# Conditions: HEK293 cells stably expressing human RXFP1; 30 min at rt; intracellular cAMP by HTRF
# Summary of the method: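 Agonism is measured as cAMP by HTRF, quantified from a standard curve via the 665/590 nm ratio and fitted with a four-parameter logistic equation. Compounds (0.010 nM to 50 μM final, 2% DMSO) were applied for 30 min at rt to human RXFP1-expressing HEK293 cells in assay buffer containing 0.5 mM IBMX.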
row,SMILES,EC50 [µM]
1,"COc1ccc(C(=O)NCCO)cc1C(=O)Nc1c(C(=O)Nc2ccc(F)c(C(F)(F)F)c2)sc2cc(C(F)(F)F)ccc12 [Example 217, N3-(2-((4-fluoro-3-(trifluoromethyl)phenyl)carbamoyl)-6-(trifluoromethyl)benzo[b]thiophen-3-yl)-N1-(2-hydroxyethyl)-4-methoxy-isophthalamide]",2.29
2,"COc1ccc(C2CCCN(C(=O)CN)C2)cc1C(=O)Nc1c(C(=O)Nc2ccc(F)c(C(F)(F)F)c2)sc2cc(C(F)(F)F)ccc12 (centres unmarked) [Example 96, N-(4-fluoro-3-(trifluoromethyl)phenyl)-3-(5-(1-glycylpiperidin-3-yl)-2-methoxy-benzamido)-6-(trifluoromethyl) benzo[b] thiophene-2-carboxamide]",0.324
3,"COc1ccc(C2CCCN(CC(N)=O)CC2)cc1C(=O)Nc1c(C(=O)Nc2ccc(F)c(C(F)(F)F)c2)sc2cc(C(F)(F)F)ccc12 (single isomer, unassigned) [Example 73, 3-(5-(1-(2-amino-2-oxoethyl)azepan-4-yl)-2-methoxy-benzamido)-N-(4-fluoro-3-(trifluoromethyl)phenyl)-6-(trifluoromethyl) benzo[b] thiophene-2-carboxamide]",1.04
4,"COc1ccc(C2=NOC3(CNC3)C2)cc1C(=O)Nc1c(C(=O)Nc2ccc(F)c(C(F)(F)F)c2)sc2cc(C(F)(F)F)ccc12 [Example 286, N-(4-fluoro-3-(trifluoromethyl)phenyl)-3-(2-methoxy-5-(5-oxa-2,6-diazaspiro[3.4]oct-6-en-7-yl)benzamido)-6-(trifluoromethyl) benzo[b] thiophene-2-carboxamide]",5
5,"COc1ccc(CCCO)cc1C(=O)Nc1c(C(=O)Nc2ccc(F)c(C(F)(F)F)c2)sc2cc(Cl)ncc12 [Example 200, 6-chloro-N-(4-fluoro-3-(trifluoromethyl)phenyl)-3-(5-(3-hydroxypropyl)-2-methoxy-benzamido) thieno[3,2-c]pyridine-2-carboxamide]",0.4
6,"COc1ccc(C2CCCN(CCS(C)(=O)=O)C2)cc1C(=O)Nc1c(C(=O)Nc2ccc(F)c(C(F)(F)F)c2)sc2cc(C(F)(F)F)ccc12 (centres unmarked) [Example 100, N-(4-fluoro-3-(trifluoromethyl)phenyl)-3-(2-methoxy-5-(1-(2-(methylsulfonyl)ethyl)piperidin-3-yl)benzamido)-6-(trifluoromethyl) benzo[b] thiophene-2-carboxamide]",2.01
7,"COc1ccc(N2CCC(NCCO)C2)cc1C(=O)Nc1c(C(=O)Nc2ccc(F)c(C(F)(F)F)c2)sc2cc(C(F)(F)F)ccc12 (single isomer, unassigned) [Example 9, N-(4-fluoro-3-(trifluoromethyl)phenyl)-3-(5-(3-((2-hydroxyethyl)amino)pyrrolidin-1-yl)-2-methoxybenzamido)-6-(trifluoromethyl) benzo[b]thiophene-2-carboxamide]",2.38
8,"COc1ncc(N2CC3(C2)CS(=O)(=O)C3)cc1C(=O)Nc1c(C(=O)Nc2ccc(F)c(C(F)(F)F)c2)sc2cc(C(F)(F)F)ccc12 [Example 234, 5-(2,2-dioxido-2-thia-6-azaspiro[3.3]heptan-6-yl)-N-(2-((4-fluoro-3-(trifluoromethyl)phenyl)carbamoyl)-6-(trifluoromethyl)benzo[b]thiophen-3-yl)-2-methoxy-nicotinamide]",1.34
9,"COc1ccc(C(=O)NCCS(C)(=O)=O)cc1C(=O)Nc1c(C(=O)Nc2ccc(F)c(C(F)(F)F)c2)sc2cc(Cl)ncc12 [Example 197, N3-(6-chloro-2-((4-fluoro-3-(trifluoromethyl)phenyl)carbamoyl)thieno[3,2-c]pyridin-3-yl)-4-methoxy-N1-(2-(methylsulfonyl)ethyl) isophthalamide]",0.45
10,"COc1ccc(C(=O)N2CC(C)(O)C2)cc1C(=O)Nc1c(C(=O)Nc2ccc(F)c(C(F)(F)F)c2)sc2cc(C(F)(F)F)ccc12 [Example 180, N-(4-fluoro-3-(trifluoromethyl)phenyl)-3-(5-(3-hydroxy-3-methylazetidine-1-carbonyl)-2-methoxy-benzamido)-6-(trifluoromethyl) benzo[b] thiophene-2-carboxamide]",0.145
11,"COc1ccc(C2CCN(C3COC3)C2)cc1C(=O)Nc1c(C(=O)Nc2ccc(F)c(C(F)(F)F)c2)sc2cc(C(F)(F)F)ccc12 (centres unmarked) [Example 142, N-(4-fluoro-3-(trifluoromethyl)phenyl)-3-(2-methoxy-5-(1-(oxetan-3-yl)pyrrolidin-3-yl)benzamido)-6-(trifluoromethyl) benzo[b] thiophene-2-carboxamide]",0.619
12,"COc1ccc(C2CCNC2)cc1C(=O)Nc1c(C(=O)Nc2ccc(F)c(C(F)(F)F)c2)sc2cc(C(F)(F)F)ccc12 (single isomer, unassigned) [Example 133, N-(4-fluoro-3-(trifluoromethyl)phenyl)-3-(2-methoxy-5-(pyrrolidin-3-yl)benzamido)-6-(trifluoromethyl) benzo[b] thiophene-2-carboxamide]",0.876
13,"COc1ccc(C2CCCC(C)(O)C2)cc1C(=O)Nc1c(C(=O)Nc2ccc(F)c(C(F)(F)F)c2)sc2cc(C(F)(F)F)ccc12 (single isomer, unassigned) [Example 36, N-(4-fluoro-3-(trifluoromethyl)phenyl)-3-(5-(3-hydroxy-3-methylcyclohexyl)-2-methoxybenzamido)-6-(trifluoromethyl)benzo[b]thiophene-2-carboxamide]",0.244
14,"COc1ccc(N2CCCC(C(=O)NS(C)(=O)=O)C2)cc1C(=O)Nc1c(C(=O)Nc2ccc(F)c(C(F)(F)F)c2)sc2cc(C(F)(F)F)ccc12 (single isomer, unassigned) [Example 6, 1-(3-((2-((4-fluoro-3-(trifluoromethyl)phenyl)carbamoyl)-6-(trifluoromethyl)benzo[b]thiophen-3-yl)carbamoyl)-4-methoxyphenyl)-N-(methylsulfonyl) piperidine-3-carboxamide]",0.349
15,"COc1ccc(-c2cc(CNC(=O)C3CCC3)ccc2F)cc1C(=O)Nc1c(C(=O)Nc2ccc(F)c(C(F)(F)F)c2)sc2cc(C(F)(F)F)ccc12 [Example 18, 3-(5′-(cyclobutanecarboxamidomethyl)-2′-fluoro-4-methoxy-[1,1′-biphenyl]-3-carboxamido)-N-(4-fluoro-3-(trifluoromethyl)phenyl)-6-(trifluoromethyl)benzo[b]thiophene-2-carboxamide]",0.311
16,"COCCC(=O)N1CCC(c2ccc(OC)c(C(=O)Nc3c(C(=O)Nc4ccc(F)c(C(F)(F)F)c4)sc4cc(C(F)(F)F)ccc34)c2)C1 (centres unmarked) [Example 143, N-(4-fluoro-3-(trifluoromethyl)phenyl)-3-(2-methoxy-5-(1-(3-methoxypropanoyl)pyrrolidin-3-yl)benzamido)-6-(trifluoromethyl) benzo[b] thiophene-2-carboxamide]",1.54
17,"COc1ncc(C(=O)N2CC3(COC3)C2)cc1C(=O)Nc1c(C(=O)Nc2ccc(F)c(C(F)(F)F)c2)sc2cc(C(F)(F)F)ccc12 [Example 172, N-(2-((4-fluoro-3-(trifluoromethyl)phenyl)carbamoyl)-6-(trifluoromethyl)benzo[b]thiophen-3-yl)-2-methoxy-5-(2-oxa-6-azaspiro[3.3]heptane-6-carbonyl) nicotinamide]",0.701
18,"COc1ccc(C2=NOC3CC(NC(=O)C(C)(C)O)CC23)cc1C(=O)Nc1c(C(=O)Nc2ccc(F)c(C(F)(F)F)c2)sc2cc(C(F)(F)F)ccc12 (single isomer, unassigned) [Example 267, N-[4-fluoro-3-(trifluoromethyl)phenyl]-3-{5-[5-(2-hydroxy-2-methyl-propanamido)-3aH,4H,5H,6H, 6aH-cyclopenta[d] [1,2]oxazol-3-yl]-2-methoxy-benzamido}-6-(trifluoromethyl)-1-benzothiophene-2-carboxamide]",3.13
19,"COc1ccc(N2CCC(NCCO)C2)cc1C(=O)Nc1c(C(=O)Nc2ccc(F)c(C(F)(F)F)c2)sc2cc(C(F)(F)F)ccc12 (centres unmarked) [Example 66, N-(4-fluoro-3-(trifluoromethyl)phenyl)-3-(5-(3-((2-hydroxyethyl)amino)pyrrolidin-1-yl)-2-methoxy-benzamido)-6-(trifluoromethyl) benzo[b] thiophene-2-carboxamide]",0.897
20,"COc1cc(C)c(C(=O)N2CC3(C2)CS(=O)(=O)C3)cc1C(=O)Nc1c(C(=O)Nc2ccc(F)c(C(F)(F)F)c2)sc2cc(C(F)(F)F)ccc12 [Example 226, 3-(5-(2,2-dioxido-2-thia-6-azaspiro[3.3]heptane-6-carbonyl)-2-methoxy-4-methylbenzamido)-N-(4-fluoro-3-(trifluoromethyl)phenyl)-6-(trifluoromethyl) benzo[b] thiophene-2-carboxamide]",1.76
